{
  "source": "patent US10316050B2",
  "about": "“PT (IV) complexes containing 4,4′-disubstituted-2,2′-bipyridyl and their use in cancer therapy” (THE BOARD OF REGENTS OF THE NEVADA SYSTEM OF HIGHER …, priority 2014, dated 2019)",
  "key": {"A549 cells [1]": {"tested_on": "A549 cells", "experiment": "Cell cycle analysis, propidium iodide flow cytometry, A549", "type": "cell-based, human", "conditions": "A549, 25 μM Pt(IV)-4C or 7.5 μM Pt(IV)-5C for 5 hours, analyzed 12 hours post treatment", "protocol": "FIG. 10 is a series of plots from a cell cycle analysis of A549 cells (top) and DU145 cells (bottom) cells treated with Pt(IV)-4C and Pt(IV)-5C. A549 cells were treated for 5 hours with control (left), 25 μM Pt(IV)-4C (center), or 7.5 μM Pt(IV)-5C (right), and analyzed 12 hours post treatment. DU145 cells were treated for 1 hour with control (left), 10 μM Pt(IV)-4C (center), or 2.5 μM Pt(IV)-5C (right), and analyzed 12 hours post treatment. Data are representative of three independent experiments.\nCells (˜50 to 60% confluent in 60 mm dishes) were treated as indicated with the platinum compound. After treatment, the floating cells were collected, and both attached and floating cells were washed 2× with PBS. The cells were resuspended in fresh medium and incubated as indicated. The cells were harvested (both the floating and attached cells were collected), counted, and pelleted. The cells were then washed two times with 5 mL PBS, fixed by resuspending in 0.1 mL of PBS and 1 mL of ice-cold 95% ethanol with gentle vortexing. Fixed cells were stored at 4° C. until analysis. For analysis, fixed cells were washed once with 1-2 mL of PBS and centrifuged at 500×g for 5 minutes. The cell pellet was resuspended in 100 μL of a 1.0% Triton X-100 buffer solution, and 100 μL of a 1.0 mg/mL RNAse solution was added and allowed to stand at room temperature for 10-15 minutes. […]"}, "A549 cells [2]": {"tested_on": "A549 cells", "experiment": "Hoechst/PI staining, confocal microscopy, A549", "type": "cell-based, human", "protocol": "(§1) Cells (100,000 to 125,000) were seeded into 35 mm dishes and incubated for 48 hours at 37° C. The cells were treated with control, Pt(IV)-4C, or Pt(IV)-5C, and while in the dark, the cells were washed 2× with 1 mL PBS. After washing, 1 mL of a 2 μg/mL Hoechst 33342 and 10 μg/mL PI solution (in PBS) was added, and the cells were incubated for 15 minutes at room temperature. Images were acquired within 5 minutes with a Nikon A1R confocal laser scanning microscopy system (CLSM) mounted on a Nikon Eclipse Ti. At least three random areas on each dish were imaged.\n(§2) Analysis of Hoechst (Ho) and PI staining by confocal microscopy also was performed to detect cell death. PI stains cells with membrane damage, whereas Ho stains both live and apoptotic cells (although apoptotic cells have more intense Ho fluorescence). […] Additionally, unlike A549, the PI positive cells in Pt(IV)-4C treated cells were higher than Pt(IV)-5C treated cells."}, "[3]": {"experiment": "Solubility in water and culture medium", "type": "physicochemical", "conditions": "stock DMSO solution diluted in the culture medium", "protocol": "It should be noted that while the solubility of the Pt(IV) complexes in organic solvents were increased compared to their Pt(II) precursors, they were still poorly soluble in water. Thus, Pt(IV)-1C to Pt(IV)-3C were limited to a highest concentration of 100 μM. […] Testing of Pt(IV)4C therefore was limited to 25 μM."}, "DU145 cells": {"tested_on": "DU145 cells", "experiment": "Hoechst/PI staining, confocal microscopy, DU145", "type": "cell-based, human", "protocol": "as §1, §2"}},
  "data": [
    {"compound": "[Pt(IV)Cl2(OAc)2(4,4′-dibutoxy-2,2′-bipyridine)] [Pt(IV)-4C]", "values": [
      {"measurement": "effect on the cell cycle / sub-G1 peak", "setting": "A549 cells [1]", "result": "decreased percentage of cells in the G1 phase and a corresponding increase in the sub-G1 peak"},
      {"measurement": "Hoechst (Ho) fluorescence compared to control", "setting": "A549 cells [2]", "result": "increased Ho fluorescence"},
      {"measurement": "PI fluorescence compared to control", "setting": "A549 cells [2]", "result": "increased PI positive cells"},
      {"measurement": "concentration at which the complex precipitated out of solution", "setting": "[3]", "result": "≥ 30", "unit": "µM"}
    ]},
    {"compound": "CC(=O)[O][Pt]([Cl])([Cl])[O]C(C)=O.CCCCCOc1ccnc(-c2cc(OCCCCC)ccn2)c1", "note": "[Pt(IV)-5C, [Pt(IV)Cl2(OAc)2(4,4′-dipentoxy-2,2′-bipyridine)]]", "values": [
      {"measurement": "effect on the cell cycle / sub-G1 peak", "setting": "A549 cells [1]", "result": "decreased percentage of cells in the G1 phase and a corresponding increase in the sub-G1 peak"},
      {"measurement": "Hoechst (Ho) fluorescence compared to control", "setting": "A549 cells [2]", "result": "increased Ho fluorescence"},
      {"measurement": "PI fluorescence compared to control", "setting": "A549 cells [2]", "result": "no difference"},
      {"measurement": "Hoechst and PI staining compared to control", "setting": "DU145 cells", "result": "more PI positive staining than Ho staining"}
    ]}
  ]
}
